In article PMC6152329, “Antitumoural Sulphur and Selenium Heteroaryl Compounds: Thermal Characterization and Stability Evaluation” (Molecules : A Journal of Synthetic Chemistry and Natural …, 2017):

Tests used:
[1] = DSC successive melting-recrystallization cycles, polymorphic behaviour; assay type: physicochemical; design: key: I: Compounds that show a polymorphic phase transition into an amorphous or mainly amorphous solid form after a first melting–cooling scan; II: Compounds that change into a new polymorphic form with a different Tonset of fusion than the one observed at the first melting–recrystallization scan after cooling; III: These compounds show a fusion process without modifications in the thermal behaviour after an initial fusion–recrystallization cycle; IV: Compounds that show recrystallization or other types of phase transition of the original form into another crystalline one in the first heat scan; V: Compounds without fusion processes at the range of temperatures studied; *: fusion with decomposition; settings: 10 °C/min
Protocol: To establish general polymorphic behaviours, samples of all the compounds synthetized (Figure 1) were exposed to successive cycles of melting–recrystallization using DSC. Calorimetric analyses were performed before the beginning of the degradation process (Table 6). […] This behaviour was shown by several compounds: VA1C, VA2E, VA8E, series H, VA6I, VA8J, VA6M and VA8M. DSC and PXRD results of compound VA7H are shown as supplementary material (Figures S1 and S2 and Table S1). • Behaviour II—Compounds that change into a new polymorphic form with a different Tonset of fusion than the one observed at the first melting–recrystallization scan after cooling. These compounds are VA7E and VA8O. DSC and PXRD results of compound VA7E are shown as supplementary material (Figures S3 and S4, Table S2). • Behaviour III—These compounds show a fusion process without modifications in the thermal behaviour after an initial fusion–recrystallization cycle. Consequently, there is no evidence of polymorphic behaviour. The compounds VA2C, VA2M, VA4J and VA5O belong to this group. DSC and PXRD results of compound VA2M are shown as supplementary material (Figures S5 and S6, Table S3). • Behaviour IV—Compounds that show recrystallization or other types of phase transition of the original form into another crystalline one in the first heat scan. In the successive cycles of melting–recrystallization, the new form may not alter its crystalline form or transit to another polymorphic form. Compounds VA6E, VA7J and VA7M show this behaviour. • Behaviour V—Compounds without fusion processes at the range of temperatures studied.
For calorimetric studies a Perkin–Elmer DSC diamond calibrated with indium and zinc (provided by Perkin–Elmer (Perkin Elmer, Inc. Watham, MA, USA) and fabricated according to guideline ISO35) at 10 °C·min^−1 and nitrogen flow of 20 mL·min^−1 was employed. The gas connected to the equipment was nitrogen with a purity of 99.999%. Calorimetric analyses were carried out in aluminium capsules for volatilities of 10 μL, at a heating rate of 10 °C·min^−1, using a sample of approximately 3 mg, in order to establish the Tonset, Tmax and the enthalpy of fusion ∆Hf.
The calorimetric analyses started with the study of the thermal behaviour of the compounds before the process of degradation in order to evidence the possible existence of polymorphism. For this preliminary study, samples of all the compounds were exposed to successive cycles of heating–cooling. All samples were heated from 50 °C to temperatures 15–20 °C below Tonset of the degradation process, in order to ensure that compounds were not degraded (Table 6). After melting the samples, they were left at room temperature for enough time to allow the compounds to recrystallize before the successive thermal process. Additional cycles of heating–cooling were performed if polymorphism was detected.

[2] = Thermogravimetric (TG) analysis of thermal stability; assay type: physicochemical; settings: nitrogen, 50 to 350 °C, 10 °C/min
Protocol: The thermogravimetric (TG) studies were carried out with a Perkin–Elmer TGA-7 (Perkin Elmer, Inc. Watham, MA, USA) which was calibrated with alumel and nickel at 10 °C·min^−1. The calibration of the oven temperatures was carried out automatically and mass calibrated with a certified sample of 10 mg (ASTM E617, provided by Perkin Elmer, Inc. Watham, MA, USA). TG analyses were performed under a nitrogen atmosphere with a gas flow of 40 mL·min^−1, from 50 to 350 °C, at a heating rate of 10 °C·min^−1, using a sample of approximately 3 mg, in order to obtain the values of the Tonset and Tmax of the degradation process as well as any associated mass loss.

[3] = system: non-malignant mammary-gland-derived (184B5) cell line; experiment: MTT cell viability assay, 72 h, 184B5; assay type: cell-based; settings: 184B5, 72 h
Protocol: (§1) The novel synthetic compounds VA2J, VA4J, VA6G, VA6H, VA6I and VA6J were tested in breast adenocarcinoma (MCF-7) and non-malignant mammary-gland-derived (184B5) cell lines to be able to establish their potency and selectivity. The reference drug used was methylseleninic acid (MSA) as a Se-containing structure with promising in vitro and in vivo results against different tumour types. Results are expressed as the concentration that inhibits 50% cell growth (GI50), the concentration that inhibits completely cell growth (TGI) and the concentration that kills 50% of cells (LD50). The selectivity index (SI) is calculated as GI50(184B5)/GI50(MCF-7).
(§2) Cell lines were purchased from the American Type Culture Collection (ATCC, Barcelona, Spain). MCF7 cell lines were grown in Roswell Park Memorial Institute (RPMI) medium (Gibco, Madrid, Spain) supplemented with 10% fetal bovine serum (FBS; Gibco), 100 units/mL penicillin and […] (Gibco, Madrid, Spain). 184B5 cells were grown in DMEM/F12 medium supplemented with 5% FBS, 1x ITS (Lonza, Barcelona, Spain), 100 nM hydrocortisone (Sigma Aldrich, Madrid, Spain), 2 mM sodium pyruvate (Lonza), 20 ng/mL EGF (Sigma Aldrich, Madrid, Spain), 0.3 nM trans-retinoic acid (Sigma-Aldrich) 100 units/mL penicillin and […]. Cells were maintained at 37 °C and 5% CO2.
(§3) Compounds were dissolved in DMSO at a concentration of 0.01 M. Serial dilutions were prepared with non-supplemented medium. The cytotoxic effect of each compound was tested at eight different concentrations ranging between 0.01 and 100 µM.
(§4) A total of 10^4 cells/well in 96 well-plates were treated with either DMSO or increasing concentrations of the corresponding compound for 72 h and cell viability was determined using the MTT (3-(4,5-dimethylthiazol-2-yl)-2,5-diphenyltetrazolium bromide) (Sigma Aldrich, Madrid, Spain) assay. Briefly, cells were incubated with 50 µL of MTT (2 mg/mL stock) for 4 h. The medium was then removed by aspiration and the formazan crystals were dissolved in 150 µL of DMSO. The absorbance was measured at 550 nm in a microplate reader (Sunrise, Tecan, Männedorf, Switzerland). […] Data were obtained from at least three independent experiments performed in quadruplicate.

[4] = system: breast adenocarcinoma (MCF-7) cell line; experiment: MTT cell viability assay, 72 h, MCF-7; assay type: cell-based, human; settings: for SI (selectivity index): GI50(184B5)/GI50(MCF-7); for TGI / LD50 / GI50: MCF-7, 72 h, MTT; for TGI: concentration that completely inhibits cell growth; for LD50: concentration that kills 50% of cells; for GI50: concentration that inhibits 50% cell growth
Protocol: as §1, §2, §3, §4

Row | Compound | DSC Behaviour (polymorphic/calorimetric behaviour) [1] | TG To (Tonset of thermal degradation) [2] | other results
1 | N=C(N)[Se]Cc1cc2c(cc1Br)OCO2 [VA7E] | II | 205.2 °C | 
2 | N#CSCN1C(=O)c2ccccc2C1=O [VA6M] | I | 164.8 °C | 
3 | CSc1nc2ccccc2s1 [VA4C] | V | 131.8 °C | 
4 | Sc1nc2ccccc2s1 [VA2C] | III | 224.7 °C | 
5 | N#C[Se]Cc1ccc(-n2cccc2)cc1 [VA5P] | * | 149.4 °C | 
6 | N=C(N)SCc1ccc([N+](=O)[O-])o1 [VA8F] | * | 190.8 °C | 
7 | O=C1c2ccccc2C(=O)N1CS [VA2M] | III | 166.0 °C | 
8 | [SeH]c1nc2ccccc2s1 [VA1C] | I | 218.4 °C | 
9 | N=C(N)SCc1ccc2ccccc2n1 [VA8H] | I | 190.2 °C | 
10 | COc1cc2oc(=O)cc(C[Se]C(=N)N)c2cc1OC [VA7I] | * | 226.4 °C | 
11 | Sc1ccnc(S)n1 [VA2B] | V | 263.3 °C | 
12 | N#CSCc1ccc2c(c1)C(=O)c1ccccc1C2=O [VA6G, (9,10-Dioxo-9,10-dihydroanthracen-2-yl)methyl Thiocyanate] | V | 238.3 °C | LD50 [3]: 64.84 µM; TGI [3]: 34.32 µM; GI50 ([3]; Homo sapiens): 14.3 µM; SI (selectivity index) [4]: 3.99; TGI [4]: 23.95 µM; LD50 [4]: 67.27 µM
13 | N#CSCc1ccc2ccccc2n1 [VA6H, Quinolin-2-ylmethyl Thiocyanate] | I | 139.1 °C | LD50 [3]: >100 µM; TGI [3]: 75.84 µM; GI50 ([3]; Homo sapiens): 27.8 µM; SI (selectivity index) [4]: 3.25; GI50 ([4]; Homo sapiens, MCF7, 72 h): < 10 µM; TGI [4]: 14.83 µM; GI50 [4]: 8.53 µM; LD50 [4]: 24.18 µM
14 | N=C(N)[Se]Cc1ccc(-n2cccc2)cc1 [VA7P] | * | 175.8 °C | 
15 | COc1cc2oc(=O)cc(CSC(=N)N)c2cc1OC [VA8I] | * | 272.4 °C | 
16 | N=C(N)[Se]Cc1ccc2ccccc2n1 [VA7H] | I | 145.8 °C | 
17 | N=C(N)[Se]CN1C(=O)c2ccccc2C1=O [VA7M] | IV | 255.8 °C | 

Row | Compound | DSC Behaviour (polymorphic/calorimetric behaviour) [1] | TG To (Tonset of thermal degradation) [2] | other results
18 | N=C(N)SCc1nc2ccccc2nc1CSC(=N)N [VA8J] | I | 251.05 °C | 
19 | Cc1noc(C)c1C[Se]C#N [VA5O] | III | 141.7 °C | 
20 | C[Se](=O)O [MSA, methylseleninic acid, reference compound] |  |  | GI50 [3]: 1.79 µM; LD50 [3]: >100 µM; TGI [3]: 3.84 µM; SI (selectivity index) [4]: 1.40; TGI [4]: 3.43 µM; GI50 [4]: 1.28 µM; LD50 [4]: >100 µM
21 | Cc1noc(C)c1CSC(=N)N [VA8O] | II | 201.8 °C | 
22 | [SeH]Cc1c2ccccc2nc2ccccc12 [VA1D] | V | 244.7 °C | 
23 | Cc1noc(C)c1C[Se]C(=N)N [VA7O] | V | 185.9 °C | 
24 | CSc1ccc2ccccc2n1 [VA4H] | I | 105.6 °C | 
25 | SCc1cc2c(cc1Br)OCO2 [VA2E] | I | 266.2 °C | 
26 | N=C(N)SCN1C(=O)c2ccccc2C1=O [VA8M] | I | 233.1 °C | 
27 | N=C(N)SCc1cc2c(cc1Br)OCO2 [VA8E] | I | 215.1 °C | 
28 | N=C(N)[Se]Cc1ccc([N+](=O)[O-])o1 [VA7F] | * | 214.7 °C | 
29 | N#CSCc1c2ccccc2nc2ccccc12 [VA6D] | V | 205.0 °C | 
30 | N=C(N)[Se]Cc1ccc2c(c1)C(=O)c1ccccc1C2=O [VA7G] | V | 198.2 °C | 
31 | N=C(N)SCc1c2ccccc2nc2ccccc12 [VA8D] | * | 193.1 °C | 
32 | CSc1ccnc(SC)n1 [VA4B] | V | 103.5 °C | 
33 | N=C(N)SCc1ccc(-n2cccc2)cc1 [VA8P] | * | 199.8 °C | 
34 | N=C(N)SCc1ccc2c(c1)C(=O)c1ccccc1C2=O [VA8G] | V | 243.7 °C | 
